One assay deals with hNav1.1 (Homo sapiens, UniProt P35498). The experiment in a line: automated patch-clamp Nav isoform screening. The assay is classed as cell-based. The note with it: Nav1.1. Background: The patch-clamp technique gives a direct electrical read-out from membranes.
The next assay addresses hNav1.5 (Homo sapiens, UniProt Q14524). Description: automated patch-clamp Nav isoform screening. It is filed as cell-based. As to conditions: Nav1.5.
For a further assay, the target named is hNav1.2 (Homo sapiens, UniProt Q99250). Description: automated patch-clamp Nav isoform screening. The assay is classed as cell-based. As to conditions: Nav1.2.
The target of the next assay is hNav1.3 (Homo sapiens, UniProt Q9NY46). The experiment in a line: automated patch-clamp Nav isoform screening. The assay is classed as cell-based. The note with it: Nav1.3.
For assay [1], the system named is T-cell proliferation to oxazolone in lymphnodes. Description: contact hypersensitivity model / in vivo local lymph node assay (T-cell immunosuppressive activity). As to conditions: mouse, 5–50 mg/kg i.p. day −1 to day 2, oxazolone sensitization day 0, read day 3.
The next assay addresses hNav1.6 (Homo sapiens, UniProt Q9UQD0). Description: automated patch-clamp Nav isoform screening. The assay is classed as cell-based. As to conditions: Nav1.6.
A further assay concerns the target hNav1.4 (Homo sapiens, UniProt P35499). The experiment in a line: automated patch-clamp Nav isoform screening. It is filed as cell-based. As to conditions: Nav1.4.
Another assay deals with hNav1.7 (Homo sapiens, UniProt Q15858). The experiment in a line: automated patch-clamp Nav isoform screening. It is filed as cell-based. As to conditions: Nav1.7.
Another assay addresses hNav1.8/β3 (Homo sapiens, UniProt Q9Y5Y9). Description: automated patch-clamp Nav isoform screening. It is filed as cell-based. As to conditions: Nav1.8.
The subject of assay [2] is rat hippocampal slices. Description: in vitro neuroprotection assay, hippocampal slices under oxygen-glucose deprivation, ATP levels. It is filed as cell-based. As to conditions: for Emax at 50 µM: Rattus norvegicus.
The test system of the next assay is sodium channels. Set-up: method as in PMID 19341281. As to conditions: reported previously / values reported in literature; read-out: [3H]sipatrigine binding, IC50; cited from earlier work.
In assay [3] the test system is rat hippocampal slices. Set-up: method as in PMID 19341281. The note with it: reported previously; cited from earlier work.
Where [4] appears, read: normalized to the effect of TTX.

Read-outs that look alike come from different tables or passages of the source. Marks after values point to notes of the source that are not given here.

hNav1.5, sequence (Q14524 whole entry, canonical isoform): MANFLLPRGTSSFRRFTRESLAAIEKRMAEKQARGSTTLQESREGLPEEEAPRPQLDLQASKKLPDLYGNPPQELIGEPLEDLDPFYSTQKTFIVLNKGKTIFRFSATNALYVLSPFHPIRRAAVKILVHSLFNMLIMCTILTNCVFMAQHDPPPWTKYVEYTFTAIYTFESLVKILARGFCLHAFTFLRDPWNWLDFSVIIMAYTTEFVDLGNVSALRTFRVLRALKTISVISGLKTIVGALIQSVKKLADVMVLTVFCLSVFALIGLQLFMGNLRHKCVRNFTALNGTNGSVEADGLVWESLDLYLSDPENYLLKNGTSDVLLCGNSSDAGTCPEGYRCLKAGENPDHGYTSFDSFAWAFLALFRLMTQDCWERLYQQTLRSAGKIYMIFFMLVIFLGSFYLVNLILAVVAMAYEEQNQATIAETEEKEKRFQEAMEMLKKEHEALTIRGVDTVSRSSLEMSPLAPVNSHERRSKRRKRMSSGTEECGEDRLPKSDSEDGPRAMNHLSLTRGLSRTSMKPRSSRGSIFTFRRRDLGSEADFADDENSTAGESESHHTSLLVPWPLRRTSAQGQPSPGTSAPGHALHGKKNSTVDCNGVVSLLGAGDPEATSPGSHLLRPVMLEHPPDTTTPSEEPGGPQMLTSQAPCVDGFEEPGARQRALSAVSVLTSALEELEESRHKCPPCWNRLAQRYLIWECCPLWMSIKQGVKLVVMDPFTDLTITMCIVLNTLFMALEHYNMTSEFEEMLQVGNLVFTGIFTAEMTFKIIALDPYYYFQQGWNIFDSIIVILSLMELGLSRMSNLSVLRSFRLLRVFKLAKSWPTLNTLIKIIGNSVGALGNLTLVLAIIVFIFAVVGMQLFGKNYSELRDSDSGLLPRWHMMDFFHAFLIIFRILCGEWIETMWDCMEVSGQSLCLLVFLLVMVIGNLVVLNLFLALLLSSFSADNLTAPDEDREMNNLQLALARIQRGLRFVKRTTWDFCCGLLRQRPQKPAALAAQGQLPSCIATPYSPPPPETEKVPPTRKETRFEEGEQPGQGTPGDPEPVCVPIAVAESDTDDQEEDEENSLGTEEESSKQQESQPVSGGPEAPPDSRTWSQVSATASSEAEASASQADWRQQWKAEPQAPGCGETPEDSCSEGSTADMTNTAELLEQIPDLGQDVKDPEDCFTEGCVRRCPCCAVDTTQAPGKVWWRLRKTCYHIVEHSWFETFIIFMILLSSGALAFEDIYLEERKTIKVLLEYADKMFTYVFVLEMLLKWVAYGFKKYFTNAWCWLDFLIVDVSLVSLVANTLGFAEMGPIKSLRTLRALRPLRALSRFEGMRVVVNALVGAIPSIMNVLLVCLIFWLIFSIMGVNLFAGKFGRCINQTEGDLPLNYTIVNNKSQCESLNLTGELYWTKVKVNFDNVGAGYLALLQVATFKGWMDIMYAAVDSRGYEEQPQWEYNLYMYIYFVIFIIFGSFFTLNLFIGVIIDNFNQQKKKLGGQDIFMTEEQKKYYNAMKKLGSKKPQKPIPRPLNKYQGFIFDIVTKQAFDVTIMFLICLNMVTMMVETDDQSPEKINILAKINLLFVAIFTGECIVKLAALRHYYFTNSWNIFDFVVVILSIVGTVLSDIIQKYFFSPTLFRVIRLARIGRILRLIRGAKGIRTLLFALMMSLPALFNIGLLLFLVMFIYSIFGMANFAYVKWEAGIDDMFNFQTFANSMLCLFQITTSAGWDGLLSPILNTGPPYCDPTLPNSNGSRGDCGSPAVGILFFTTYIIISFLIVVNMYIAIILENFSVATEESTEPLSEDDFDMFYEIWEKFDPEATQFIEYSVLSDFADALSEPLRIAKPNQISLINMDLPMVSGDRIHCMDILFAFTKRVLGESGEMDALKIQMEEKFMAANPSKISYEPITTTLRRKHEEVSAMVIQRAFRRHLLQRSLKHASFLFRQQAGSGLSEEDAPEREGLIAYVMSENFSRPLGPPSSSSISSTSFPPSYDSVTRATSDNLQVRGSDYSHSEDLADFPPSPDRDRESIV
hNav1.6, sequence (Q9UQD0 whole entry, canonical isoform): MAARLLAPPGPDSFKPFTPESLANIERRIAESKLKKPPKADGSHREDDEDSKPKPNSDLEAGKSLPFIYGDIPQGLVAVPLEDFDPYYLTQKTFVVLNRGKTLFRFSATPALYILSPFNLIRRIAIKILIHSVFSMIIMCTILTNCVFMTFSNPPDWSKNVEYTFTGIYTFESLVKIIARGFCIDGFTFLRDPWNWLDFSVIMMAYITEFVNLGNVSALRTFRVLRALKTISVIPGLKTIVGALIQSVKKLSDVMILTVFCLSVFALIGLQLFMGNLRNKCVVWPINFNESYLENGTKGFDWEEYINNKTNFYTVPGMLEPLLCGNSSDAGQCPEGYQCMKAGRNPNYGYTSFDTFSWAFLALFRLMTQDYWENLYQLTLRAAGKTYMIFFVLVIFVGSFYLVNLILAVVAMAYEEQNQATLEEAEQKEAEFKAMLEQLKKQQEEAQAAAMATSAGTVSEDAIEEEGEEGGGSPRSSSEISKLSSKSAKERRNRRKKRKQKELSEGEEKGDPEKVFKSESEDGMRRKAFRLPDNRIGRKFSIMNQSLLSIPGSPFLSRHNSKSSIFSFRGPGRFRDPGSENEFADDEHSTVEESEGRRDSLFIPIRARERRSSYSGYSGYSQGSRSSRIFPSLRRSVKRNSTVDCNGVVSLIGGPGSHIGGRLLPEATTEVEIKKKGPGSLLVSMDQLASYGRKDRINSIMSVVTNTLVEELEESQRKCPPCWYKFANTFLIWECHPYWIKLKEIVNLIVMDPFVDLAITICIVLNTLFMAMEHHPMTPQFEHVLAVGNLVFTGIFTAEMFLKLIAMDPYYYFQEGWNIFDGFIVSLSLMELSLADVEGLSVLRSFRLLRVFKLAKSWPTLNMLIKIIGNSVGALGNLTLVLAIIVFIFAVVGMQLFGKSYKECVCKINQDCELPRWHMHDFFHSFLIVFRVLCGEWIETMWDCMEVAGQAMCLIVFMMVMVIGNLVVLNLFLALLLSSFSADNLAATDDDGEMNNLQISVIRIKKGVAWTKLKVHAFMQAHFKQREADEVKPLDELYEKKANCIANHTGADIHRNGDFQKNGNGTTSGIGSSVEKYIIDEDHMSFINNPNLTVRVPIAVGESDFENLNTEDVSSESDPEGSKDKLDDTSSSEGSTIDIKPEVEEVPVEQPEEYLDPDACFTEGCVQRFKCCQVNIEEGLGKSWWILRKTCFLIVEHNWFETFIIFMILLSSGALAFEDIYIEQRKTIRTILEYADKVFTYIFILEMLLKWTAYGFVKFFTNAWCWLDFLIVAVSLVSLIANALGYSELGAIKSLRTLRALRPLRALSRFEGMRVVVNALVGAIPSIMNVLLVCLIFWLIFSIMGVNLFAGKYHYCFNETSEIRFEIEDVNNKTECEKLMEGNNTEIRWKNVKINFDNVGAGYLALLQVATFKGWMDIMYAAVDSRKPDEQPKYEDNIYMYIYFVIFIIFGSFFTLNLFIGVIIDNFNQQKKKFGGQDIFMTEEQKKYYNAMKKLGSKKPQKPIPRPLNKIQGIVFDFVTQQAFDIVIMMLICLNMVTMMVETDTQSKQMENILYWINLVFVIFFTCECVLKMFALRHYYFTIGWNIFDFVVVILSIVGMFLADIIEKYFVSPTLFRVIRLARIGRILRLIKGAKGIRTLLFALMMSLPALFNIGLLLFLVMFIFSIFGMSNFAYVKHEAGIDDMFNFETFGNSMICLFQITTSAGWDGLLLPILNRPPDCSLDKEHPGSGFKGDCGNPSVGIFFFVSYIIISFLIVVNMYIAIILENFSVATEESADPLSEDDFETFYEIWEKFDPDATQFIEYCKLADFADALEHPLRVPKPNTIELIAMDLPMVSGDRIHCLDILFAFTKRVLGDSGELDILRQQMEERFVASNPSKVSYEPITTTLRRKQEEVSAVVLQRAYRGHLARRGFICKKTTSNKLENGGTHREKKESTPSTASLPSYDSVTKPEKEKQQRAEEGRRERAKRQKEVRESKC

Consider `O=C(NCc1noc(-c2nn(CCn3ccnc3)c3ccccc23)n1)c1ccccc1` [compound 6, N-[[5-[1-(2-Imidazol-1-ylethyl)indazol-3-yl]-1,2,4-oxadiazol-3-yl]methyl]benzamide], for which the “inactivated-state block (c) n (slope of the fit)” value at hNav1.1 stood at 1.71 ± 0.73; at hNav1.5, 0.99 ± 0.22; on hNav1.2 it was 1.48 ± 0.38; on hNav1.3, 0.78 ± 0.15; at hNav1.6, 2.45 ± 2.59; on hNav1.4, 1.43 ± 0.27. Moreover, the results for the “inactivated-state block (c) n (slope of the fit)” value at hNav1.7 and at hNav1.8/β3 were 2.24 ± 0.17 and 1.42 ± 0.1, respectively. For the same molecule, the results for the “10 Hz block (b) n (slope of the fit)” value at hNav1.5, at hNav1.2 and at hNav1.4 were 1.16 ± 0.54, 1.82 ± 0.73 and 1.21 ± 0.36, respectively. The figures for the “tonic block (a) n (slope of the fit)” value on hNav1.2 and on hNav1.7 were 1.12 ± 0.51 and 2.09 ± 1.73, respectively. For the same molecule, the “T-cell immunosuppressive activity (inhibitory effect of sensitization; lymph node cell numbers, per cell proliferative response)” value in assay [1] is recorded as “no evidence suggestive of any inhibitory effect of sensitization”. The same molecule came in with a maximum response (Emax) at 50 µM in the assay on rat hippocampal slices [2] (setting [4]) of 46%.

`CC(C)(C)OC(=O)NCc1noc(-c2nn(Cc3ccccc3)c3ccccc23)n1` [compound 14]: the IC50 in the assay with sodium channels is 8.3 µM. The “neuroprotection at 50 μM” value in the assay on rat hippocampal slices [3] is on record as 19 ^e %.

Consider `CC(C)(C)OC(=O)NCc1noc(-c2c3ccccc3nn2Cc2ccccc2)n1` [compound 15], for which the 50% inhibitory concentration (IC50) in the assay on sodium channels was 5.5 µM. Also, the “neuroprotection at 50 μM” value with rat hippocampal slices [3] was 25 ^e %.

Regarding `NCc1noc(-c2nn(Cc3ccccc3)c3ccccc23)n1` [compound 24], the IC50 with sodium channels is 3.3 ± 0.6 µM.

For `NCc1noc(-c2c3ccccc3nn2Cc2ccccc2)n1` [compound 25], in the assay with sodium channels, the IC50 was 7 ± 2.8 µM.

`O=C(NCc1noc(-c2c3ccccc3nn2CCn2ccnc2)n1)c1ccccc1` [compound 34] displayed an Emax at 50 µM in the assay on rat hippocampal slices [2] (setting [4]) of 41 ± 9.4%.

Regarding `COc1cccc(C(=O)NCc2noc(-c3nn(CCn4ccnc4)c4ccccc34)n2)c1OC` [compound 41], the maximal response (Emax) at 50 µM in the assay on rat hippocampal slices [2] (setting [4]) came to 71%.

In the case of `O=C(NCc1noc(-c2c3ccccc3nn2CCn2ccnc2)n1)c1cccc(OC(F)(F)F)c1` [compound 51], the “10 Hz block (b) n (slope of the fit)” value worked out at 1.32 ± 0.16 at hNav1.1; 0.37 ± 0.13 at hNav1.5; 0.63 ± 0.14 at hNav1.2; 0.35 ± 0.19 at hNav1.3; 0.42 ± 0.19 at hNav1.6; 1.34 ± 0.13 on hNav1.4. Besides, the “10 Hz block (b) n (slope of the fit)” value on hNav1.7 was found to be 2.63 ± 0.33; on hNav1.8/β3, 2.62 ± 1.05. Further, the “inactivated-state block (c) n (slope of the fit)” value on hNav1.1 was determined as 2.09 ± 0.32; at hNav1.5 it was 0.49 ± 0.15; on hNav1.2, 0.6 ± 0.12; at hNav1.3, 0.96 ± 0.19; at hNav1.6, 1.17 ± 0.18; at hNav1.4, 1.75 ± 0.12. The “inactivated-state block (c) n (slope of the fit)” value at hNav1.7 is listed as 2.5 ± 0.1; on hNav1.8/β3, 2.75 ± 0.66. The “tonic block (a) n (slope of the fit)” value at hNav1.1 is listed as 1.09 ± 0.24; at hNav1.5, 0.76 ± 0.23; on hNav1.2, 0.48 ± 0.14; at hNav1.4 it was 1.23 ± 0.18; on hNav1.7 it was 2.59 ± 0.41; at hNav1.8/β3 it was 2.14 ± 0.51.

On to `Nc1nnc(-c2cccc(Cl)c2Cl)c(N)n1` [lamotrigine, reference compound], for which, in the assay with sodium channels, the IC50 is 1.8 ± 0.2 µM. The neuroprotection with rat hippocampal slices [2] (tested at 30 μM, normalized to the effect of TTX) is given as 33 ^b %.

Consider `CN1CCN(c2ncc(-c3cc(Cl)cc(Cl)c3Cl)c(N)n2)CC1` [sipatrigine, reference compound], for which the concentration for half-maximal inhibition (IC50) in the assay on sodium channels was 0.04 ± 0.001 µM. In addition, the neuroprotection with rat hippocampal slices [2] (tested at 3 μM) is 93 ^d %.

As for `NC1=N[C@H](O)[C@H]2[C@H]3O[C@]4(O)O[C@@H]([C@@H](O)[C@@]2(N1)[C@@H]4O)[C@]3(O)CO` [tetrodotoxin, reference compound], the neuroprotection in the assay with rat hippocampal slices [2] is on record as 100 ^c %.

As usually defined, the Emax is the maximal effect, on the per cent scale that the assay sets. The IC50 is the point on the concentration scale where inhibition reaches its midpoint.

The values above are taken from PMC4010550, “Imidazol-1-ylethylindazole Voltage-Gated Sodium Channel Ligands Are Neuroprotective during Optic Neuritis in a Mouse Model of Multiple Sclerosis” (Journal of Medicinal Chemistry, 2014).
